According to article PMC10611619, “[^99mTc]Tc-PentixaTec: development, extensive pre-clinical evaluation, and first human experience” (European Journal of Nuclear Medicine and Molecular Imaging, 2023):
Where two headings read alike, the source gives them in different places. Where a SMILES comes first, the peptide text is derived from it. Side-chain parts run from the residue outwards. [ ]: non-standard residue; d: D form. The star is where a group is joined. 2Nal = N[C@@H](Cc1ccc2ccccc2c1)C(=O)O; dNMeOrn = CN[C@H](CCCN)C(=O)O; 4Abz = Nc1ccc(C(=O)O)cc1; X1 = NCCNCC(CNCCN)C(=O)*; dDap = NC[C@@H](N)C(=O)O

Assays:
[1] = Safety monitoring in patients (adverse events); type: in vivo, human
Protocol: Five patients (age, 48–72 y, median 66 y) with a history of hematological malignancy underwent imaging after intravenous injection of a median of 558 MBq (range, 417–601) [^99mTc]Tc-PentixaTec. […] Safety was assessed by monitoring adverse events after administration of [^99mTc]PentixaTec.

[2] = test system: hCXCR4 expressing Chem-1 cells; assay: Dual tracer internalization studies with [^125I]FC-131 as internal reference; type: cell-based, human
Protocol: Dual tracer internalization studies using [^125I]FC-131 as internal reference were conducted in hCXCR4 expressing Chem-1 cells in analogy to a previously established protocol. A detailed assay protocol is provided in the supplementary material section.
On the day prior to the experiment, Chem-1 cells were seeded in 24-well-plates at a density of app. 1·10^5 cells per well. On the day of the experiment, the culture medium was removed and the cells were washed once with 250 µL of unsupplemented medium before being left to equilibrate in 200 µL of assay medium (DMEM/F-12 containing 5% BSA) at 37°C for a minimum of 15 min before the experiment. Cells were then coincubated with the respective ^99mTc-labeled compound of interest (0.2 nM) and [^125I]FC-131 (0.2 nM) in the absence (total binding) or presence (non-specific binding) of 100 µM AMD3100 for different time points up to 120 min at 37°C (n=3 wells, respectively, per time point). Incubation was terminated by placing the plate on an ice pack for app. 1 min and by subsequent removal of the incubation medium. Cells were thoroughly rinsed with 250 µL of HBSS. After washing twice with 250 µL of ice cold acid wash buffer (0.02 M NaOAc buffered with AcOH to pH = 5), cells were lysed with 250 µL of 1 N NaOH. The lysate was tranferred to vials and combined with 250 µL of HBSS used for rinsing the wells. Quantification of the amount of free, acid-releasable and internalized ^99mTc- and ^125I-activity was performed using dual isotope protocol on a WIZARD^2® 2480 automatic γ-Counter (Perkin Elmer, Waltham MA, USA).
All data were corrected for non-specific internalization in the presence of […] AMD3100 and were then normalized to the specific internalization observed of the standard radioligand [^125I]FC-131.

[3] = Blood clearance / excretion in patients; type: in vivo, human; conditions: for half-life: human, whole blood, iv
Protocol: [^99mTc]Tc-PentixaTec scans were performed using a dual head gamma camera (GE Discovery NM/CT 670 Pro, Milwaukee, WI, USA). In the four patients undergoing dosimetry, planar dynamic whole body scans were performed 5 min, 30 min, and 1 h with a bed speed of 30 cm/min; 2 h, 3 h, and 5 h with a speed of 12 cm/min; and 24 h with a speed of 5 cm/min after tracer injection. SPECT/CT imaging was performed following the 3-h planar imaging with 60 views and a frame duration of 8 s. Attenuation maps were generated on the basis of low-dose CT.
Venous blood samples (2.7 mL) were drawn directly before each planar scan. A cross-calibrated well-counter (Digibase, Ametek, Oak Ridge, TN, USA) was used to measure activity in the blood samples, resulting in the average activity per mL blood. Plasma half-life was calculated using NUKFIT software.

[4] = In vitro stability in various media (radio-TLC); type: in vitro ADME; conditions: for percentage of intact tracer: original product formulation
Protocol: Solutions were incubated for up to 13 h at room temperature. Sequential radio-thin layer chromatography was performed after 20 min, 40 min, 100 min, 2.6 h, 3.6 h, 4.4 h, and 13 h of incubation, and the amount of intact ligand was analyzed by integration of the TLC chromatogram.

[5] = test system: Jurkat xenograft bearing CB17/SCID mice; assay: Biodistribution in Jurkat xenograft-bearing mice, 1 h p.i.; type: in vivo; conditions: n = 5, mean ± SD
Protocol: Female CB17/SCID mice bearing subcutaneous Jurkat human T cell lymphoma xenografts (for more detailed information, see supplemental material) were injected intravenously with the respective ^99mTc-labeled tracer (5–20 MBq, 0.1–0.2 nmol/mouse) under isofluorane anesthesia and were sacrificed at 1 h post-injection (p.i.). The organs of interest were dissected, and the activity concentration in weighed tissue samples was quantified using a WIZARD^2® 2480 automatic γ-Counter from Perkin Elmer (Waltham MA, USA). Biodistribution data are given in %iD/g and represent means ± SD (groups of n = 4–5 animals). Statistical analysis (t-test) was performed using GraphPad Prism.
To establish tumor xenografts, Jurkat cells (2 – 3x10^7 cells) were suspended in a mixture of RPMI 1640 medium and Matrigel (1/1; v/v) (BD Biosciences, Heidelberg, Germany), and injected subcutaneously into the right shoulder of 6–10 weeks old CB17-SCID mice from either Charles River GmbH (Sulzfeld, Germany) or the in-house mouse breeding facility. As soon as tumors had grown to a diameter of 5–8 mm (4 – 10 weeks after inoculation), mice were used for the experiments.

C[C@@H](NC(=O)[C@@H](CCCNC(=N)N)NC(=O)[C@@H](CN)NC(=O)C(CNCCN)CNCCN)C(=O)Nc1ccc(C(=O)NCCC[C@@H]2C(=O)N[C@@H](CCCNC(=N)N)C(=O)N[C@@H](Cc3ccc4ccccc4c3)C(=O)NCC(=O)N[C@H](Cc3ccc(O)cc3)C(=O)N2C)cc1 [[^99mTc]Tc-N4-L6-CPCR4, [^99mTc]Tc-N4-dap-r-a-Abz-CPCR4, metal not drawn] (cyclo([dY][dNMeOrn]([4Abz-dA-dR-dDap-X1])R[2Nal]G))
adverse events ([1]; five patients): no adverse events were recorded | tolerability ([1]; five patients with hematologic malignancies): well tolerated | internalized activity in % of total cellular activity ([2]; 2 h): 97% | absolute intracellular tracer accumulation ([2]; 2 h, 37°, 0.2 nM): ~40 % of added dose | Internalization (% of reference) ([2]; 120 min, normalized to specific internalization of [^125I]FC-131, Chem-1 cells): 694 (120 min) % of reference | internalization area under the curve (AUC) ([2]; internalization kinetics, Fig. 1): 3799 | hepatobiliary excretion [3]: no significant hepatobiliary excretion | half-life ([3]; read-out: plasma half-life, median): 19 min | half-life ([3]; read-out: plasma half-life, range): 15 to 25 min | stability in saline and challenging conditions ([4]; diluted with saline, citrate and DTPA, room temperature): progressive decomposition | percentage of intact tracer ([4]; start): 94.5% | percentage of intact tracer ([4]; within 2.5 h): 90.6% | stability in physiological media ([4]; whole blood, serum, human serum albumin (2.5 and 5%), 13 h, room temperature): fully stable | Biodistribution Tumor (tumor accumulation) ([5]; Jurkat xenograft): 8.6 ± 1.3 %iD/g | Biodistribution Muscle [5]: 0.3 ± 0.05 %iD/g | Biodistribution Spleen [5]: 5.6 ± 0.8 %iD/g
